# From patent publication US8603539B2, “Compositions for drug delivery” (Dr. Reddy's Laboratories Limited, priority 2005, dated 2013)
# Test system: New Zealand white rabbits
# Test: Comparative dermal irritation study (PDII)
# Settings: rabbit skin, patch 24 hours; erythema and edema scores at 25, 48 and 72 hours
# Protocol: Six male New Zealand white rabbits of age between 10 to 15 months and weight in the range of 2 to 3 Kg were used in the study. […] The hair on the backs of the rabbits was clipped and approximately 0.5 g of Test or Reference or Control 2 was placed on a gauze patch and was applied to the skin site. Separate gauze patches containing Test, Reference and Control 2 were applied on the back. The patches were moistened with 0.5 ml physiological saline after application. 0.5 ml of Control 1 was injected into a fourth gauze patch after applying the patch on the skin. The patches were removed after 24 hours.
# The test and control items were categorized based on the Primary Dermal Irritation Index (PDII). The PDII was determined as the ratio of total irritation score (TIS) and total number of observations. The TIS was calculated by adding the subtotal values for erythema and edema. The subtotal values for erythema and edema were separately calculated by adding the irritation scores at 25, 48 and 72 hours post-application. The following scoring criteria were used as described in the literature (S. C. Gad et al., Acute Toxicology Testing: Perspectives and Horizons, The Telford Press, Inc., Caldwell, N.J., 1988):
structure (smiles),measurement,value
"CCCCCCCCCCCCOS(=O)(=O)[O-].[Na+] [Control 1, sodium lauryl sulphate]",PDII (Primary Dermal Irritation Index),0.44
